# Measured values reported in patent US20110009351A1, “SCREENING ASSAY TO IDENTIFY CORRECTORS OF PROTEIN TRAFFICKING DEFECTS” (Traffick Therepeutics Inc., priority 2007, published 2011).
# “Also recorded” adds a separate entry of the source.
# How the values were obtained:
# Assay type in all cases: cell-based
# ΔF508-CFTR [1] = biological target: T1, ΔF508-CFTR (Homo sapiens, UniProt P13569, DEL508-508); experiment: immunoblot and densitometry of mature band C, BHK cells expressing ΔF508-CFTR; parameters: which was then ligated into full length pNUT-CFTR linearized using Hpa1 and Pml1; expressed in transfected cells
# T1 sequence (P13569 with tags, fused parts or gaps DEL508-508): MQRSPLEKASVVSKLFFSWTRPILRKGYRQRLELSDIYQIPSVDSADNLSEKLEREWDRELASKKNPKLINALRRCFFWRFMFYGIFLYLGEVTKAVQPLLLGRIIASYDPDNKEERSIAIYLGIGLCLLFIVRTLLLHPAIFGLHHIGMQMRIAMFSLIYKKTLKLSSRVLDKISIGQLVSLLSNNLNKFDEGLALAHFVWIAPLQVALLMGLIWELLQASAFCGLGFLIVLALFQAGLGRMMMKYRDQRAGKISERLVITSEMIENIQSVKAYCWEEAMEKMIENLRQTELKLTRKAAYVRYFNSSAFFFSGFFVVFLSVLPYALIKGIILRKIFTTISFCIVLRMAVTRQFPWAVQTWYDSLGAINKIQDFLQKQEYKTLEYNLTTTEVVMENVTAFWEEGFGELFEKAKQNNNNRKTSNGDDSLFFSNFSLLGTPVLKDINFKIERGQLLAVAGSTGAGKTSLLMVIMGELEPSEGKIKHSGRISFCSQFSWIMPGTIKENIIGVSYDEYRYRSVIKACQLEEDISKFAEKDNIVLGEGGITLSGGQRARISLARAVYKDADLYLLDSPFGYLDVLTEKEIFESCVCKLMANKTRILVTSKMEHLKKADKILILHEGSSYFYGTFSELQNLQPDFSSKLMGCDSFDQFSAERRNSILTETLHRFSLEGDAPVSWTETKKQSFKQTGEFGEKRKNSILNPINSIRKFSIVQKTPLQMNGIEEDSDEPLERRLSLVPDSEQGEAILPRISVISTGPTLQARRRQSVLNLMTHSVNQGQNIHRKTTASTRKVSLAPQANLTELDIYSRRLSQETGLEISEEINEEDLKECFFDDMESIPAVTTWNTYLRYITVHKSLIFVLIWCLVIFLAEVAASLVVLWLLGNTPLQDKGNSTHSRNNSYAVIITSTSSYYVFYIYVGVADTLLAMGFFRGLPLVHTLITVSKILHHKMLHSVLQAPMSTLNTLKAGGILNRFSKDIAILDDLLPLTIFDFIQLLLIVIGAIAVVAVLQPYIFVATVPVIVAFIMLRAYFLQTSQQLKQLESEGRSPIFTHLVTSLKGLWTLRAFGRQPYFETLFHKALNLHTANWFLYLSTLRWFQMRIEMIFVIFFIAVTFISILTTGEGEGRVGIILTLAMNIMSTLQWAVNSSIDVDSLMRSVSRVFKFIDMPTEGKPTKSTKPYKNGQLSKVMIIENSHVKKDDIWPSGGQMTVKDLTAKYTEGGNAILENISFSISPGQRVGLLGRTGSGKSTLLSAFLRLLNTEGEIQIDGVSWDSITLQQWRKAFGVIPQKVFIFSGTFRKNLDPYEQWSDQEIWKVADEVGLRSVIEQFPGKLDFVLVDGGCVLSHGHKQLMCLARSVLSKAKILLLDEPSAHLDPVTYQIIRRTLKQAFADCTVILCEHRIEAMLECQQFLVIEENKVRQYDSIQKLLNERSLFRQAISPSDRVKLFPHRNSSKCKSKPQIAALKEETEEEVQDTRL
# Method: (§1) Cell lysates were quantitated by Bradford assay (BioRad) and separated by SDS-PAGE (6% polyacrylamide gels) and analyzed by Western blotting. Western blots were blocked using 5% skimmed milk in PBS, then probed overnight at 4° C. with a primary anti-CFTR antibody at a dilution of 1:1000 monoclonal mouse antibody (clone M3A7, Chemicon). The blots were washed four times in PBS before the addition of the secondary HRP-conjugated anti-mouse antibody, at a dilution of 1:5000 (Amersham) for one hour at room temperature. The blots were washed five times in PBS and probed for chemiluminescence (Pierce). All samples were run with equal protein loading as determined using the Bradford assay (Biorad). Densitometry of the immunoblots was performed using the ImageJ program (National Institutes of Health).
# Total protein was quantified in cell lysates using the Bradford assay (BioRad, Hercules, Calif.), separated using SDS-PAGE (6% polyacrylamide gels), and analyzed by Western blotting as described previously (Robert et al., 2007). Western blots were blocked with 5% skimmed milk in PBS and probed overnight at 4° C. with a monoclonal primary anti-CFTR antibody (clone M3A7, Chemicon, Temecula, Calif.) diluted 1:1000. The blots were washed four times in PBS before adding the secondary HRP-conjugated anti-mouse antibody at a dilution of 1:5000 (Amersham, Piscataway, N.J.) for one hour at room temperature, then washed again five times in PBS and visualized using chemiluminescence (Pierce, Rockford, Ill.). The relative intensity of each CFTR glycoform (band B or band C) was estimated by densitometry using the ImageJ software and reported as a percentage of the total CFTR in the same lane (i.e. B+C).
# wt CFTR [2] = biological target: T2, wt CFTR (Homo sapiens, UniProt P13569); experiment: immunoblot and densitometry of mature band C, BHK cells expressing wt CFTR; settings: 10% glycerol
# T2 construct: which was then ligated into full length pNUT-CFTR linearized using Hpa1 and Pml1; expressed in transfected cells
# T2 sequence (P13569 whole entry): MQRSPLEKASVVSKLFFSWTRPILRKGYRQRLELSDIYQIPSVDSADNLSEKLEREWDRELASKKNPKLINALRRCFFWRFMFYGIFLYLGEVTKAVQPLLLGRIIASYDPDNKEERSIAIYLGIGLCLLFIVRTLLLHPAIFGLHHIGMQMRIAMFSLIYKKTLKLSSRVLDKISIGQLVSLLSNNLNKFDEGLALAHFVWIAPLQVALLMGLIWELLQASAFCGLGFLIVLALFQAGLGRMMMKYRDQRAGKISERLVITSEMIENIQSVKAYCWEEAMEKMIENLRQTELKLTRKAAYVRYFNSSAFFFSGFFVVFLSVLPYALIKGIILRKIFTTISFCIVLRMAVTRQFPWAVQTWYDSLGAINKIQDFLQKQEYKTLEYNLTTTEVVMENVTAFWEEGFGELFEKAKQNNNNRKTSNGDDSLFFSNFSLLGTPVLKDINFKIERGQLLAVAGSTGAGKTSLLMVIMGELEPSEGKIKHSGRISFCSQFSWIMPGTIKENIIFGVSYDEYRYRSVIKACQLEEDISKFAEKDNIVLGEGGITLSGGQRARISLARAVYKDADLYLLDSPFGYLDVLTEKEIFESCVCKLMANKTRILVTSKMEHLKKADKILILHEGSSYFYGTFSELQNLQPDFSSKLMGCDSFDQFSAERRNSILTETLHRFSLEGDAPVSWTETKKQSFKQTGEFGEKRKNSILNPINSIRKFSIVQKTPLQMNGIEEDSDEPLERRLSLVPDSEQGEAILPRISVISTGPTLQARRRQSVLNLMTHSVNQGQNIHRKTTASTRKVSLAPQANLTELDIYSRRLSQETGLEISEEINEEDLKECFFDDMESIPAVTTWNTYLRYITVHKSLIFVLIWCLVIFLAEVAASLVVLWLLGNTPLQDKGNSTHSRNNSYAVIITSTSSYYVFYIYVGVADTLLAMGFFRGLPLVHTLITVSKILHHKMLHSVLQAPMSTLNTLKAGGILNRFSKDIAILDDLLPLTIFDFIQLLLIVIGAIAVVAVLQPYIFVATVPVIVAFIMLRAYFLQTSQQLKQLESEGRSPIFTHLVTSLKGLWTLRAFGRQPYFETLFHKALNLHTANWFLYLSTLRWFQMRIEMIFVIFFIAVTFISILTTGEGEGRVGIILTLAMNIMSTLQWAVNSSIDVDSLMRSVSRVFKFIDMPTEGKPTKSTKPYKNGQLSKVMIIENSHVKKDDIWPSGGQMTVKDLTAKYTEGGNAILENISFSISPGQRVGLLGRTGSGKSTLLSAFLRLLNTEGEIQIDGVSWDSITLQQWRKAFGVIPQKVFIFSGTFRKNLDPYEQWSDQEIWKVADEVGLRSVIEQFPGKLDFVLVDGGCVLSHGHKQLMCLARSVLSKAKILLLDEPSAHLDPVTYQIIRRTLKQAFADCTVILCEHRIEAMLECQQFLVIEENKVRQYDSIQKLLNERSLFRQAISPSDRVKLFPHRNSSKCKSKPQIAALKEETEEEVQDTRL
# Method: as §1
# wt CFTR [3] = biological target: T2, wt CFTR; experiment: three stage ELISA of CFTR surface expression, BHK cells expressing wt CFTR; settings: 10% glycerol, cells expressing wild-type CFTR
# Method: (§2) Cells were screened for CFTR surface expression using a three stage ELISA system (Pierce Inc., USA). Briefly, BHK cells expressing 3HA-tagged ΔF508-CFTR were seeded in 96-well plates (Corning, USA) at 30,000 cells per well and incubated for 24 h at 37° C. Each well was treated with a test compound for 24 h, then cells were fixed in 4% paraformaldehyde solution and washed with PBS containing 0.1% bovine serum albumin and 0.05% tween-20. Cells were blocked for 1 h in solution containing 3% normal horse serum in PBS at room temperature. […] After washing four more times, the cells were exposed to 3,3′,5,5′ tetramethylbenzidine (Pierce Inc., USA) for 15 min, sulphuric acid (2M) was added, and absorbance was measured at 450 nm (Power-Wavex Bio-tek Instruments).
# (§3) To determine if cell surface expression of CFTR could be quantified in a high-throughput screen using this assay, cells expressing tagged versions of wt or ΔF508-CFTR were seeded in 96-well plates, treated with 10% glycerol and monitored as light absorbance using an enzyme-linked assay system. As expected, untreated ΔF508-CFTR cells had low absorbance since they expressed little CFTR on their cell surface under control conditions (FIG. 3A).
# ΔF508-CFTR [4] = biological target: T1, ΔF508-CFTR; experiment: three stage ELISA of CFTR surface expression, BHK cells expressing ΔF508-CFTR; parameters: which was then ligated into full length pNUT-CFTR linearized using Hpa1 and Pml1; expressed in transfected cells; settings: 10% glycerol or 1 mM sodium 4-phenylbutyrate, 24 hours
# Method: as §2, §3
# ΔF508-CFTR [5] = biological target: T1, ΔF508-CFTR; parameters: which was then ligated into full length pNUT-CFTR linearized using Hpa1 and Pml1; expressed in transfected cells
# Outline: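 BHK cells stably expressing 3HA-tagged ΔF508-CFTR (tags in fourth extracellular loop) treated with compound at 20 μM final for 24 h at 37° C. Surface ΔF508-CFTR measured on fixed, non-permeabilised cells by anti-HA/FITC immunofluorescence (488/510 nm), relative to untreated-well background; hits retested in duplicate, intrinsically fluorescent compounds excluded.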
# ΔF508-CFTR [6] = biological target: T1, ΔF508-CFTR; experiment: iodide efflux assay in BHK cells expressing ΔF508-CFTR; parameters: which was then ligated into full length pNUT-CFTR linearized using Hpa1 and Pml1; expressed in transfected cells; settings: 24 hours, BHK
# Method: Experiments were performed by hand or with a robotic liquid handling system (BioRobot 8000, Qiagen, USA) using Qiagen 4.1 software. Cells were cultured in 24-well plates until they reached confluence in order to perform parallel experiments and comparison analysis. After treatment (or not) with a test compound, medium in each well was replaced with 1 ml of iodide loading buffer (in mM: 136 NaI, 3 KNO3, 2 Ca(NO3)2, 11 glucose and 20 Hepes pH 7.4) for 1 hour at 37° C. to permit the I′ to reach equilibrium. At the beginning of each experiment, the loading buffer was removed by aspiration and cells were washed eight times with efflux buffer (same as loading buffer except that NaI was replaced with 136 mM NaNO3) to remove extracellular I^− in each well. The loss of intracellular I^− was determined by removing the medium and replacing it with fresh efflux buffer every 1 min for up to 11 min. The first four aliquots were recovered at 1-minute intervals in an empty 24-well plate and used to establish a stable baseline in efflux buffer alone. A stimulation buffer (efflux buffer containing 50 μM genistein+10 μM forskolin) was then added and sampling continued with replacement by stimulation buffer. The iodide concentration of each aliquot was determined using an iodide-sensitive electrode (Orion Research Inc., Boston, Mass., USA or Ecomet) and converted to iodide content (i.e. the amount of iodide released during the 1 min interval). Curves were constructed by plotting concentration versus time. Data are presented as means±SEM.
# Iodide effluxes were performed using a robotic liquid handling system (BioRobot 8000, Qiagen, Valencia, Calif.) and Qiagen 4.1 software. Cells were cultured to confluence in 24-well plates. After treatment (or not) with a test compound, the medium in each well was replaced with 1 ml of iodide loading buffer: 136 mM NaI, 3 mM KNO3, 2 mM Ca(NO3)2, 11 mM glucose, 20 mM Hepes, pH 7.4 with NaOH) and incubated for 1 h at 37° C. At the beginning of each experiment, the loading buffer was removed by aspiration and cells were washed eight times with 300 μl efflux buffer (same as loading buffer except that NaI was replaced with 136 mM NaNO3) to remove extracellular I^−. Efflux was measured by replacing the medium with 300 μl fresh efflux buffer at 1 min intervals for up to 11 min. The first four aliquots were used to establish a stable baseline, then buffer containing 10 μM forskolin+50 μM genistein was used to stimulate CFTR activity. Iodide concentration was measured in each aliquot (300 μl) using an iodide-sensitive electrode (Orion Research Inc., Boston, Mass.). Relative iodide efflux rate was calculated using the difference between maximum (peak) iodide concentration during stimulation and minimum iodide concentration before stimulation (in μM/min). […]
# ΔF508-CFTR [7] = biological target: T1, ΔF508-CFTR; experiment: iodide efflux assay in CFBE41o− airway epithelial cells; parameters: expressed in transfected cells; host or cells: CFBE41o- (ΔF508/ΔF508) transduced with ΔF508-CFTR, TranzVector lentivirus, provided by J. P. Clancy; settings: 10 μM pretreatment
# Method: Experiments were performed by hand or with a robotic liquid handling system (BioRobot 8000, Qiagen, USA) using Qiagen 4.1 software. Cells were cultured in 24-well plates until they reached confluence in order to perform parallel experiments and comparison analysis. After treatment (or not) with a test compound, medium in each well was replaced with 1 ml of iodide loading buffer (in mM: 136 NaI, 3 KNO3, 2 Ca(NO3)2, 11 glucose and 20 Hepes pH 7.4) for 1 hour at 37° C. to permit the I′ to reach equilibrium. […] The loss of intracellular I^− was determined by removing the medium and replacing it with fresh efflux buffer every 1 min for up to 11 min. […] The iodide concentration of each aliquot was determined using an iodide-sensitive electrode (Orion Research Inc., Boston, Mass., USA or Ecomet) and converted to iodide content (i.e. the amount of iodide released during the 1 min interval). […]
# Iodide effluxes were performed using a robotic liquid handling system (BioRobot 8000, Qiagen, Valencia, Calif.) and Qiagen 4.1 software. […] Efflux was measured by replacing the medium with 300 μl fresh efflux buffer at 1 min intervals for up to 11 min. […] Iodide concentration was measured in each aliquot (300 μl) using an iodide-sensitive electrode (Orion Research Inc., Boston, Mass.). […]
# ΔF508-CFTR [8] = biological target: T1, ΔF508-CFTR; experiment: short-circuit current (Isc) across CFBE41o− monolayers in Ussing chambers; parameters: expressed in transfected cells; host or cells: CFBE41o- (ΔF508/ΔF508) transduced with ΔF508-CFTR, TranzVector lentivirus, provided by J. P. Clancy; settings: 10 μM, 24 h
# Method: Short-circuit current (Isc) was measured across monolayers in modified Ussing chambers. 1×10^6 CFBE41o^− cells were seeded onto 12-mm fibronectin-coated Snapwell inserts (Corning Incorporated, Life Sciences, New-York, N.Y.) and the apical medium was removed after 24 h. Transepithelial resistance was monitored using an EVOM epithelial voltohmmeter (World Precision Instruments, Sarasota, Fla.) and cells were used when the transepithelial resistance was 300-400 ohms·cm^2. In some experiments, F508del-CFBE41o^− monolayers were incubated at 29° C. or treated with glafenine at 37° C. for 24 h before being mounted in EasyMount chambers and voltage clamped using a VCCMC6 multichannel current-voltage clamp (Physiologic Instruments, San Diego, Calif.). The apical membrane conductance was functionally isolated by permeabilizing the basolateral membrane with 200 μg/ml nystatin and imposing an apical-to-basolateral Cl^− gradient. For these experiments the basolateral bathing solution contained (in mM) 1.2 NaCl, 115 Na-gluconate, 25 NaHCO3, 1.2 MgCl2, 4 CaCl2, 2.4, KH2PO4, 1.24 K2HPO4, 10 glucose (pH 7.4 with NaOH). The CaCl2 concentration was increased to 4 mM to compensate for the chelation of calcium by gluconate. The apical bathing solution contained (in mM) 115 NaCl, 25 NaHCO3, 1.2 MgCl2, 1.2 CaCl2, 2.4 KH2PO4, 1.24 K2HPO4, 10 mannitol (pH 7.4 with NaOH). […]
# F508del CFTR = biological target: T3, F508del CFTR (Homo sapiens, UniProt P13569, DEL508-508); experiment: YFP fluorescence quenching functional assay (iodide influx), HEK293 cells with F508del CFTR and halide sensitive YFP; settings: 10 μM, 24 h
# T3 construct: expressed in transfected cells; host or cells: HEK293 Griptite cells stably expressing F508del CFTR, transiently transfected with halide-sensitive eYFP
# T3 sequence (P13569 with tags, fused parts or gaps DEL508-508): as the sequence (P13569 with tags, fused parts or gaps DEL508-508) above
# Outline: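 HEK293 Griptite cells stably expressing F508del CFTR, transiently transfected with halide-sensitive eYFP, treated 24 h with 10 μM compound in triplicate, then stimulated 20 min with 25 μM forskolin, 45 μM IBMX and 50 μM genistein. YFP quench after 50 mM iodide imaged 15 times over 40 s on 150-300 cells/well.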
smiles,measurement,setting,value
OCC(O)CO [glycerol],increase of band C by densitometry,"ΔF508-CFTR [1]; 10% glycerol, ΔF508-CFTR",37 fold
same,increase of band C by densitometry,wt CFTR [2],1.5 fold
same,increase of plasma membrane signal,wt CFTR [3],2.5 fold
same,"plasma membrane signal (absorbance), words",ΔF508-CFTR [4],increased the plasma membrane signal
same,fluorescence increase in comparison with the untreated cells,"ΔF508-CFTR [5]; 10% glycerol, ΔF508-CFTR cells",2.7 fold
CCCc1nn(C)c2c(=O)[nH]c(-c3cc(S(=O)(=O)N4CCN(C)CC4)ccc3OCC)nc12 [sildenafil],increase in the intensity of the mature band C,ΔF508-CFTR [1]; after sildenafil treatment,30%
same,cAMP-stimulated iodide efflux,ΔF508-CFTR [6]; 10 μM pretreatment,did not restore a strong cAMP-stimulated iodide efflux responses; also recorded: did not produce significant iodide efflux
same,cAMP-stimulated iodide efflux,ΔF508-CFTR [6]; 1 mM,strong cAMP-stimulated iodide efflux was detected; also recorded: function was detected
same,iodide efflux,ΔF508-CFTR [7],negative result
same,signal in the trafficking assay,"ΔF508-CFTR [5]; Microsource Discovery library, medium and weak hits, 20 μM, 24 hours",consistently elevated signal
COc1ccc(S(=O)(=O)N2CCN(C(C)c3nc(OC4CCCCC4)c4ccccc4n3)CC2)cc1 (stereo not shown) [VRT325],forskolin+genistein-stimulated Isc,ΔF508-CFTR [8],not different from vehicle controls
same,functional correction in YFP quenching assay,F508del CFTR,somewhat larger YFP-quenching response
same,"ΔF508-CFTR surface expression increase, normalized to BHK cells expressing wild-type CFTR","ΔF508-CFTR [5]; 10 μM, 24 h, compared with vehicle alone",36%
